Measurements: patent US20260347338A1, “PYRIMIDINE/PYRIDINE DERIVATIVES OR SALTS THEREOF AND PHARMACEUTICAL COMPOSITIONS COMPRISING THE SAME” (YUHAN CORPORATION, priority 2023, published 2026)
Counter-ions that a name gives are not always drawn.

The compounds below were run against T1, human recombinant HPK1 (Homo sapiens, UniProt Q92918) (assay: Inhibitory activity against human recombinant HPK1 (TR-FRET)). Conditions: ULight-p70S6K peptide, ATP at Km, room temperature, 1 hour, 0.32 to 1000 nM compound.
T1 construct: purchased BPS Bioscience
Assay type: biochemical
Outline: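 IC50 classes A–D use 10, 50 and 100 nM cut-offs, derived from TR-FRET signal inhibition relative to DMSO controls. Human recombinant HPK1 phosphorylated ULight-p70S6K peptide at Km ATP for 1 h, room temperature, pH 7.4; test range 0.32–1000 nM final, detection with Eu-labelled antibody after EDTA quench.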

T1 sequence (Q92918 whole entry): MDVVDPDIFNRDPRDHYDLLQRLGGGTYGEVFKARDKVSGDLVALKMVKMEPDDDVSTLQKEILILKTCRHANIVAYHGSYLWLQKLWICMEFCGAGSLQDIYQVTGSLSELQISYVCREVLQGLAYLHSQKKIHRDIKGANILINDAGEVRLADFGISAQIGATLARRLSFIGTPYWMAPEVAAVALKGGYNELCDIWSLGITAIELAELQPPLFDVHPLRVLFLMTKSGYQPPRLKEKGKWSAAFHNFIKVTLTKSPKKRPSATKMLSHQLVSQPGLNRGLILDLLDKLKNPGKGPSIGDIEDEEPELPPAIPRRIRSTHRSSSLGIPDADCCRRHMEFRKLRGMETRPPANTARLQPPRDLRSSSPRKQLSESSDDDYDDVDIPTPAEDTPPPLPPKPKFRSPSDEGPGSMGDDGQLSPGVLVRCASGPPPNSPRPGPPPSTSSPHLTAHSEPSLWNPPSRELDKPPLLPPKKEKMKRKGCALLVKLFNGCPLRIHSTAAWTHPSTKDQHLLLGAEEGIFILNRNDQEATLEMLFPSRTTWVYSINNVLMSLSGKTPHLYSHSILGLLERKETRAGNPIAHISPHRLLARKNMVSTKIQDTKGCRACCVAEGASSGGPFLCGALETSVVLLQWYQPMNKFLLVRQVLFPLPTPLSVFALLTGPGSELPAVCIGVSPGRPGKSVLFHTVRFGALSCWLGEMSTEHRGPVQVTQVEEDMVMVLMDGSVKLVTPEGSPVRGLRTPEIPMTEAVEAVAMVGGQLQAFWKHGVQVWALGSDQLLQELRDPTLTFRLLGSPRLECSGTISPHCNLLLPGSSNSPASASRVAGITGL

IC50, ≤ 10 nM:
COc1cccc(F)c1-c1nccc(Nc2cc(N3CCC[C@H](N)C3)c(-c3cnn(CCN(C)C)c3)cn2)n1 [Example 246, (S)-N-(4-(3-aminopiperidin-1-yl)-5-(1-(2-(dimethylamino)ethyl)-1H-pyrazol-4-yl)pyridin-2-yl)-2-(2-fluoro-6-methoxyphenyl)pyrimidin-4-amine hydrochloride]
COc1cccc(F)c1-c1nccc(Nc2cc(N3CCC[C@H](N)C3)c(-c3cnn(CF)c3)cn2)n1 [Example 247, (S)-N-(4-(3-aminopiperidin-1-yl)-5-(1-(fluoromethyl)-1H-pyrazol-4-yl)pyridin-2-yl)-2-(2-fluoro-6-methoxyphenyl)pyrimidin-4-amine hydrochloride]
COc1cccc(F)c1-c1nccc(Nc2cc(N3CCC[C@H](N)C3)c(-c3ccc(C4CCNCC4)nc3)cn2)n1 [Example 248, (S)-4-(3-aminopiperidin-1-yl)-N-(2-(2-fluoro-6-methoxyphenyl)pyrimidin-4-yl)-6′-(piperidin-4-yl)-[3,3′-bipyridin]-6-amine hydrochloride]
COc1cccc(F)c1-c1nccc(Nc2cc(N3CCC[C@H](N)C3)c(-c3ccc(OCCN(C)C)nc3)cn2)n1 [Example 249, (S)-4-(3-aminopiperidin-1-yl)-6′-(2-(dimethylamino)ethoxy)-N-(2-(2-fluoro-6-methoxyphenyl)pyrimidin-4-yl)-[3,3′-bipyridin]-6-amine hydrochloride]
CCNC(=O)Nc1ccc(-c2cnc(Nc3ccnc(-c4c(F)cccc4OC)n3)cc2N2CCC[C@H](N)C2)cn1 [Example 250, (S)-1-(4′-(3-aminopiperidin-1-yl)-6′-((2-(2-fluoro-6-methoxyphenyl)pyrimidin-4-yl)amino)-[3,3′-bipyridin]-6-yl)-3-ethylurea hydrochloride]
COc1cc(C(=O)N2CC[C@@H](F)C2)cc(F)c1-c1nccc(Nc2cc(N3CCC[C@H](N)C3)c(-c3cnn(C(F)F)c3)cn2)n1 [Example 251, (4-(4-((4-((S)-3-aminopiperidin-1-yl)-5-(1-(difluoromethyl)-1H-pyrazol-4-yl)pyridin-2-yl)amino)pyrimidin-2-yl)-3-fluoro-5-methoxyphenyl)((R)-3-fluoropyrrolidin-1-yl)methanone]
COc1cccc(F)c1-c1nccc(Nc2cc(N3C[C@@H](N)CC[C@H]3C)c(-c3cnn(C(F)F)c3)cn2)n1 [Example 252, N-(4-((2R,5S)-5-amino-2-methylpiperidin-1-yl)-5-(1-(difluoromethyl)-1H-pyrazol-4-yl)pyridin-2-yl)-2-(2-fluoro-6-methoxyphenyl)pyrimidin-4-amine]
COc1cccc(F)c1-c1nccc(Nc2cc(N3CC[C@H](OC)[C@H](N)C3)c(-c3cnn(C(F)F)c3)cn2)n1 [Example 253, N-(4-((3R,4S)-3-amino-4-methoxypiperidin-1-yl)-5-(1-(difluoromethyl)-1H-pyrazol-4-yl)pyridin-2-yl)-2-(2-fluoro-6-methoxyphenyl)pyrimidin-4-amine]
COc1cccc(F)c1-c1nccc(Nc2cc(N3CC[C@@H](OC)[C@H](N)C3)c(-c3cnn(C(F)F)c3)cn2)n1 [Example 254, N-(4-((3R,4R)-3-amino-4-methoxypiperidin-1-yl)-5-(1-(difluoromethyl)-1H-pyrazol-4-yl)pyridin-2-yl)-2-(2-fluoro-6-methoxyphenyl)pyrimidin-4-amine]
COc1cccc(F)c1-c1nccc(Nc2cc(N3CCC[C@H](N)C3)c(-c3ccc(C(=O)N4CCOCC4)cc3)cn2)n1 [Example 255, (S)-(4-(4-(3-aminopiperidin-1-yl)-6-((2-(2-fluoro-6-methoxyphenyl)pyrimidin-4-yl)amino)pyridin-3-yl)phenyl)(morpholino)methanone hydrochloride]
COc1cccc(F)c1-c1nccc(Nc2cc(N3CCC[C@H](N)C3)c(-c3cnc4c(c3)OCCN4C)cn2)n1 [Example 256, (S)-N-(4-(3-aminopiperidin-1-yl)-5-(4-methyl-3,4-dihydro-2H-pyrido[3,2-b][1,4]oxazin-7-yl)pyridin-2-yl)-2-(2-fluoro-6-methoxyphenyl)pyrimidin-4-amine hydrochloride]
COc1cccc(F)c1-c1nccc(Nc2cc(N3CCC[C@H](N)C3)c(-c3ccc4c(c3)OCCN4C)cn2)n1 [Example 257, (S)-N-(4-(3-aminopiperidin-1-yl)-5-(4-methyl-3,4-dihydro-2H-benzo[b][1,4]oxazin-7-yl)pyridin-2-yl)-2-(2-fluoro-6-methoxyphenyl)pyrimidin-4-amine hydrochloride]
COc1cccc(F)c1-c1nccc(Nc2cc(N3CCC[C@H](N)C3)c(-c3ccc4c(c3)COC(=O)N4)cn2)n1 [Example 258, (S)-6-(4-(3-aminopiperidin-1-yl)-6-((2-(2-fluoro-6-methoxyphenyl)pyrimidin-4-yl)amino)pyridin-3-yl)-1,4-dihydro-2H-benzo[d][1,3]oxazin-2-one hydrochloride]
COc1cccc(F)c1-c1nccc(Nc2cc(N3CCC[C@H](N)C3)c(-c3ccc(N4CCCC4=O)cc3)cn2)n1 [Example 259, (S)-1-(4-(4-(3-aminopiperidin-1-yl)-6-((2-(2-fluoro-6-methoxyphenyl)pyrimidin-4-yl)amino)pyridin-3-yl)phenyl)pyrrolidin-2-one hydrochloride]
COc1cccc(F)c1-c1nccc(Nc2cc(N3CCC[C@H](N)C3)c(-c3ccc4c(c3)OCC(=O)N4)cn2)n1 [Example 260, (S)-7-(4-(3-aminopiperidin-1-yl)-6-((2-(2-fluoro-6-methoxyphenyl)pyrimidin-4-yl)amino)pyridin-3-yl)-2H-benzo[b][1,4]oxazin-3(4H)-one hydrochloride]
COc1cccc(F)c1-c1nccc(Nc2cc(N3CCC[C@H](N)C3)c(-c3ccc4c(c3)OCC(=O)N4C)cn2)n1 [Example 261, (S)-7-(4-(3-aminopiperidin-1-yl)-6-((2-(2-fluoro-6-methoxyphenyl)pyrimidin-4-yl)amino)pyridin-3-yl)-4-methyl-2H-benzo[b][1,4]oxazin-3(4H)-one hydrochloride]
COc1cccc(F)c1-c1nccc(Nc2cc(N3CCC[C@H](N)C3)c(-c3cc(C)c4c(c3)CCC(=O)N4)cn2)n1 [Example 262, (S)-6-(4-(3-aminopiperidin-1-yl)-6-((2-(2-fluoro-6-methoxyphenyl)pyrimidin-4-yl)amino)pyridin-3-yl)-8-methyl-3,4-dihydroquinolin-2(1H)-one hydrochloride]
COc1cccc(F)c1-c1nccc(Nc2cc(N3CCC[C@H](N)C3)c(-c3ccc4c(c3)CCC(=O)N4C)cn2)n1 [Example 263, (S)-6-(4-(3-aminopiperidin-1-yl)-6-((2-(2-fluoro-6-methoxyphenyl)pyrimidin-4-yl)amino)pyridin-3-yl)-1-methyl-3,4-dihydroquinolin-2(1H)-one hydrochloride]
